Laboratory results as given in ChEMBL document CHEMBL1201862, “PubChem BioAssay data set” (2004).
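Each compound was tested at five concentrations against cells in 96-well plates for 48 hours. The concentration for 50% growth inhibition is given as GI50.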 Activity calls are given as the source filed them. No stated cut-off is given here; in the data, active = GI50 up to about 1.1 µM and inactive = higher.

Tests used:
Test in all cases: DTP human tumour cell line panel, 48 h
CAKI-1 = tested on: CAKI-1
HOP-62 = tested on: HOP-62
SK-OV-3 = tested on: SK-OV-3
COLO 205 = tested on: COLO 205
SNB-75 = tested on: SNB-75
UACC-62 = tested on: UACC-62
MCF7 = tested on: MCF7
PC-3 = tested on: PC-3
SK-MEL-5 = tested on: SK-MEL-5
EKVX = tested on: EKVX
RPMI-8226 = tested on: RPMI-8226
OVCAR-3 = tested on: OVCAR-3
NCI-H522 = tested on: NCI-H522
NCI-H23 = tested on: NCI-H23
KM12 = tested on: KM12
Malme-3M = tested on: Malme-3M
MDA-MB-435 = tested on: MDA-MB-435
BT-549 = tested on: BT-549
A549 = tested on: A549
MDA-MB-231 = tested on: MDA-MB-231

SMILES: O=C1C(Cl)=C(N2CCN(c3ccccn3)CC2)C(=O)c2ncccc21
- GI50 (CAKI-1): 2.13 µM (inactive)
- GI50 (HOP-62): 11.9 µM (inactive)
- GI50 (SK-OV-3): 7 µM (inactive)
- GI50 (COLO 205): 1.84 µM (inactive)
- GI50 (SNB-75): 6.21 µM (inactive)
- GI50 (UACC-62): 2.45 µM (inactive)
- GI50 (MCF7): 1.67 µM (inactive)
- GI50 (PC-3): 2.8 µM (inactive)
- GI50 (SK-MEL-5): 2 µM (inactive)
- GI50 (EKVX): 11.9 µM (inactive)
- GI50 (RPMI-8226): 2 µM (inactive)
- GI50 (OVCAR-3): 1.69 µM (inactive)
- GI50 (NCI-H522): 1.67 µM (inactive)
- GI50 (NCI-H23): 1.89 µM (inactive)
- GI50 (KM12): 3.53 µM (inactive)
- GI50 (Malme-3M): 1.75 µM (inactive)
- GI50 (MDA-MB-435): 1.69 µM (inactive)
- GI50 (BT-549): 1.79 µM (inactive)
- GI50 (A549): 6.56 µM (inactive)
- GI50 (MDA-MB-231): 1.69 µM (inactive)

SMILES: CC(=NNC(=S)Nc1ccccc1)c1cccc(C(C)=NNC(=S)Nc2ccccc2)n1
- GI50 (CAKI-1): 1.79 µM (inactive)
- GI50 (HOP-62): 2.11 µM (inactive)
- GI50 (SK-OV-3): 5.98 µM (inactive)
- GI50 (COLO 205): 2.48 µM (inactive)
- GI50 (SNB-75): 10.8 µM (inactive)
- GI50 (UACC-62): 2.43 µM (inactive)
- GI50 (MCF7): 3.11 µM (inactive)
- GI50 (PC-3): 5.21 µM (inactive)
- GI50 (SK-MEL-5): 2.64 µM (inactive)
- GI50 (EKVX): 6.98 µM (inactive)
- GI50 (RPMI-8226): 2.83 µM (inactive)
- GI50 (OVCAR-3): 1.38 µM (inactive)
- GI50 (NCI-H522): 5.35 µM (inactive)
- GI50 (NCI-H23): 7.46 µM (inactive)
- GI50 (KM12): 3.38 µM (inactive)
- GI50 (Malme-3M): 4.57 µM (inactive)
- GI50 (MDA-MB-435): 8.32 µM (inactive)
- GI50 (BT-549): 12.2 µM (inactive)
- GI50 (A549): 3.94 µM (inactive)
- GI50 (MDA-MB-231): 4.62 µM (inactive)

SMILES: COc1ccc2c3c1OC1C(=O)C=CC4(O)C(C2)NCC[C@@]314 (stereo not given in full)
- GI50 (CAKI-1): 2.13 µM (inactive)
- GI50 (HOP-62): 2.39 µM (inactive)
- GI50 (SK-OV-3): 3.18 µM (inactive)
- GI50 (COLO 205): 1.44 µM (inactive)
- GI50 (SNB-75): 1.25 µM (inactive)
- GI50 (UACC-62): 3.44 µM (inactive)
- GI50 (MCF7): 1.98 µM (inactive)
- GI50 (PC-3): 3.3 µM (inactive)
- GI50 (SK-MEL-5): 4.16 µM (inactive)
- GI50 (EKVX): 2.3 µM (inactive)
- GI50 (RPMI-8226): 1.12 µM (inactive)
- GI50 (OVCAR-3): 1.52 µM (inactive)
- GI50 (NCI-H522): 0.556 µM (active)
- GI50 (NCI-H23): 2.03 µM (inactive)
- GI50 (KM12): 2.84 µM (inactive)
- GI50 (Malme-3M): 0.964 µM (active)
- GI50 (MDA-MB-435): 1.4 µM (inactive)
- GI50 (BT-549): 1.95 µM (inactive)
- GI50 (A549): 4.61 µM (inactive)
- GI50 (MDA-MB-231): 2.95 µM (inactive)

SMILES: O=C1CC(c2ccco2)C2(C(=O)NC(=O)NC2=O)C(c2ccco2)C1 (stereo not given)
- GI50 (CAKI-1): > 75 µM (inactive)
- GI50 (HOP-62): > 75 µM (inactive)
- GI50 (SK-OV-3): > 75 µM (inactive)
- GI50 (COLO 205): > 75 µM (inactive)
- GI50 (SNB-75): > 75 µM (inactive)
- GI50 (UACC-62): > 75 µM (inactive)
- GI50 (MCF7): > 75 µM (inactive)
- GI50 (PC-3): > 75 µM (inactive)
- GI50 (SK-MEL-5): > 75 µM (inactive)
- GI50 (EKVX): > 75 µM (inactive)
- GI50 (RPMI-8226): > 75 µM (inactive)
- GI50 (OVCAR-3): > 75 µM (inactive)
- GI50 (NCI-H522): > 75 µM (inactive)
- GI50 (NCI-H23): > 75 µM (inactive)
- GI50 (KM12): > 75 µM (inactive)
- GI50 (Malme-3M): > 75 µM (inactive)
- GI50 (MDA-MB-435): > 75 µM (inactive)
- GI50 (BT-549): > 75 µM (inactive)
- GI50 (A549): > 75 µM (inactive)
- GI50 (MDA-MB-231): > 75 µM (inactive)

SMILES: CNCCCNc1c2ccccc2nc2cccc([N+](=O)[O-])c12
- GI50 (CAKI-1): 0.00753 µM (active)
- GI50 (HOP-62): 0.00373 µM (active)
- GI50 (SK-OV-3): 0.0103 µM (active)
- GI50 (COLO 205): 0.0015 µM (active)
- GI50 (SNB-75): 0.00438 µM (active)
- GI50 (UACC-62): 0.00468 µM (active)
- GI50 (MCF7): 0.00143 µM (active)
- GI50 (PC-3): 0.00182 µM (active)
- GI50 (SK-MEL-5): 0.00507 µM (active)
- GI50 (EKVX): 0.00809 µM (active)
- GI50 (RPMI-8226): 0.00348 µM (active)
- GI50 (OVCAR-3): 0.00449 µM (active)
- GI50 (NCI-H522): 0.000449 µM (active)
- GI50 (NCI-H23): 0.00193 µM (active)
- GI50 (KM12): 0.0064 µM (active)
- GI50 (Malme-3M): 0.0043 µM (active)
- GI50 (MDA-MB-435): 0.00166 µM (active)
- GI50 (BT-549): 0.0023 µM (active)
- GI50 (A549): 0.00187 µM (active)
- GI50 (MDA-MB-231): 0.00158 µM (active)

SMILES: CCCCc1c(C(=O)OC(C)(C)C)cc(C#Cc2cc(C(=O)OC(C)(C)C)c(CCCC)c(C(=O)OC(C)(C)C)c2)cc1C(=O)OC(C)(C)C
- GI50 (CAKI-1): > 100 µM (inactive)
- GI50 (HOP-62): > 100 µM (inactive)
- GI50 (SK-OV-3): > 100 µM (inactive)
- GI50 (COLO 205): > 100 µM (inactive)
- GI50 (SNB-75): > 100 µM (inactive)
- GI50 (UACC-62): > 100 µM (inactive)
- GI50 (MCF7): > 100 µM (inactive)
- GI50 (PC-3): > 100 µM (inactive)
- GI50 (SK-MEL-5): > 100 µM (inactive)
- GI50 (EKVX): > 100 µM (inactive)
- GI50 (RPMI-8226): > 100 µM (inactive)
- GI50 (OVCAR-3): > 100 µM (inactive)
- GI50 (NCI-H522): > 100 µM (inactive)
- GI50 (NCI-H23): > 100 µM (inactive)
- GI50 (KM12): > 100 µM (inactive)
- GI50 (Malme-3M): > 100 µM (inactive)
- GI50 (MDA-MB-435): > 100 µM (inactive)
- GI50 (BT-549): > 100 µM (inactive)
- GI50 (A549): > 100 µM (inactive)
- GI50 (MDA-MB-231): > 100 µM (inactive)

SMILES: CN(C)c1ccc(/C=C/C(=O)c2cc(C(C)(C)C)c(O)c(C(C)(C)C)c2)cc1
- GI50 (CAKI-1): 1.14 µM (inactive)
- GI50 (HOP-62): 2.54 µM (inactive)
- GI50 (SK-OV-3): 1.74 µM (inactive)
- GI50 (COLO 205): 0.348 µM (active)
- GI50 (SNB-75): 0.579 µM (active)
- GI50 (UACC-62): 0.637 µM (active)
- GI50 (MCF7): 0.469 µM (active)
- GI50 (PC-3): 1.22 µM (inactive)
- GI50 (SK-MEL-5): 0.774 µM (active)
- GI50 (EKVX): 0.583 µM (active)
- GI50 (RPMI-8226): 1.55 µM (inactive)
- GI50 (OVCAR-3): 0.443 µM (active)
- GI50 (NCI-H522): 0.482 µM (active)
- GI50 (NCI-H23): 2.07 µM (inactive)
- GI50 (KM12): 0.641 µM (active)
- GI50 (Malme-3M): > 100 µM (inactive)
- GI50 (MDA-MB-435): 0.258 µM (active)
- GI50 (BT-549): 3.64 µM (inactive)
- GI50 (A549): 2.32 µM (inactive)
- GI50 (MDA-MB-231): 2.44 µM (inactive)

SMILES: O=C(O)C1=NN(c2ccc(S(=O)(=O)O)cc2)C2(C1)SCC(=O)N2c1nc2ccccc2s1 (stereo not given)
- GI50 (CAKI-1): > 100 µM (inactive)
- GI50 (HOP-62): > 100 µM (inactive)
- GI50 (SK-OV-3): > 100 µM (inactive)
- GI50 (COLO 205): > 100 µM (inactive)
- GI50 (SNB-75): > 100 µM (inactive)
- GI50 (UACC-62): > 100 µM (inactive)
- GI50 (MCF7): > 100 µM (inactive)
- GI50 (PC-3): > 100 µM (inactive)
- GI50 (SK-MEL-5): > 100 µM (inactive)
- GI50 (EKVX): > 100 µM (inactive)
- GI50 (RPMI-8226): > 100 µM (inactive)
- GI50 (OVCAR-3): > 100 µM (inactive)
- GI50 (NCI-H522): > 100 µM (inactive)
- GI50 (NCI-H23): > 100 µM (inactive)
- GI50 (KM12): > 100 µM (inactive)
- GI50 (Malme-3M): > 100 µM (inactive)
- GI50 (MDA-MB-435): > 100 µM (inactive)
- GI50 (BT-549): > 100 µM (inactive)
- GI50 (A549): > 100 µM (inactive)
- GI50 (MDA-MB-231): > 100 µM (inactive)

SMILES: Cc1cc(=O)oc2cc(OC(=O)N(CCCl)CCCl)ccc12
- GI50 (CAKI-1): > 100 µM (inactive)
- GI50 (HOP-62): > 100 µM (inactive)
- GI50 (SK-OV-3): > 100 µM (inactive)
- GI50 (COLO 205): > 100 µM (inactive)
- GI50 (SNB-75): 50.7 µM (inactive)
- GI50 (UACC-62): 29.4 µM (inactive)
- GI50 (MCF7): > 100 µM (inactive)
- GI50 (PC-3): 46.8 µM (inactive)
- GI50 (SK-MEL-5): > 100 µM (inactive)
- GI50 (EKVX): > 100 µM (inactive)
- GI50 (RPMI-8226): 61.4 µM (inactive)
- GI50 (OVCAR-3): > 100 µM (inactive)
- GI50 (NCI-H522): 79.1 µM (inactive)
- GI50 (NCI-H23): > 100 µM (inactive)
- GI50 (KM12): > 100 µM (inactive)
- GI50 (Malme-3M): > 100 µM (inactive)
- GI50 (MDA-MB-435): > 100 µM (inactive)
- GI50 (BT-549): 44.7 µM (inactive)
- GI50 (A549): > 100 µM (inactive)
- GI50 (MDA-MB-231): > 100 µM (inactive)
